Measured values from patent US12257237B2 (priority 2017, dated 2025).
Values joined by “and” are separate entries in the source; they are usually repeats but may differ in a detail not shown here. Equal values may be shown once.

System: DD013 dedifferentiated liposarcoma
Experiment: Antitumour activity in DD013 dedifferentiated liposarcoma xenograft model
Format: in vivo, Athymic nude mice
Experimental: Experiments were performed with female Athymic nude mice, 9-10 weeks old obtained from Harlan Laboratories (Udine, Italy). They were maintained under Specific Pathogen Free conditions with constant temperature and humidity, according to the institutional guidelines.
Tumour growth mice was monitored two/three times a week (depending on tumour growth rate, to avoid unnecessary stress to the animals) by Vernier caliper. Mice were sacrificed when tumour reached a mean weight of 2±0.5 gr. The antitumour activity will be expressed as T/C %, where T and C were the mean tumour weight of treated and control groups, respectively. Mice were monitored daily and weighted at least two times a week. Tolerability was evaluated on the basis of body weight loss (BWL) and clinical observation.
Statistical analysis was performed with GraphPad Prism version 6.01 software (GraphPad software, Inc., La Jolla, CA, USA). ANOVA test was performed to evaluate if there were statistically significant differences between treated and control groups.
Briefly, xenografts were obtained by transplanting 3-4 mm tumour fragments s.c. in the flanks of mice. The growing tumour masses were measured with the aid of a Vernier caliper, and the tumour weights (TW, 1 mm^3=1 mg) were calculated by the formula: length×(width) 2/2. When tumour load achieved about 200-400 mg, mice were randomized into the experimental groups.

Cn1c(CCCCCCC(=O)NO)nc2cc(N(CCCl)CCCl)ccc21 [EDO-S101, 7-(5-(bis(2-chloroethyl)amino)-1-methyl-1H-benzo[d]imidazol-2-yl)-N-hydroxyheptanamide]
DD0113 tumour weight, Mean (EDO60: EDO-S101 60 mg/kg q7dx3, day 87 from inoculum): 393.6 mg | DD0113 tumour weight, Mean (EDO60: EDO-S101 60 mg/kg q7dx3, day 90 from inoculum): 436.6 mg | DD0113 tumour weight, individual mouse (EDO60: EDO-S101 60 mg/kg q7dx3, day 90 from inoculum, 60 mg/kg): 118.4 mg and 56.3 mg and 626.5 mg and 82.7 mg and 234.7 mg and 492.6 mg and 49.6 mg | DD0113 tumour weight, Mean (EDO60: EDO-S101 60 mg/kg q7dx3, day 94 from inoculum): 476.6 mg | DD0113 tumour weight, individual mouse (EDO60: EDO-S101 60 mg/kg q7dx3, day 94 from inoculum, 60 mg/kg): 135.6 mg and 73.5 mg and 693.0 mg and 95.1 mg and 279.8 mg and 598.8 mg and 43.4 mg | DD0113 tumour weight, Mean (EDO60: EDO-S101 60 mg/kg q7dx3, day 98 from inoculum): 451.5 mg | DD0113 tumour weight, individual mouse (EDO60: EDO-S101 60 mg/kg q7dx3, day 98 from inoculum, 60 mg/kg): 113.6 mg and 57.9 mg and 655.0 mg and 70.1 mg and 225.1 mg and 584.9 mg and 30.7 mg | DD0113 tumour weight, Mean (EDO60: EDO-S101 60 mg/kg q7dx3, day 100 from inoculum): 518.4 mg | DD0113 tumour weight, individual mouse (EDO60: EDO-S101 60 mg/kg q7dx3, day 100 from inoculum, 60 mg/kg): 122.1 mg and 86.5 mg and 751.1 mg and 87.0 mg and 297.7 mg and 718.0 mg and 40.7 mg | DD0113 tumour weight, Mean (EDO60: EDO-S101 60 mg/kg q7dx3, day 103 from inoculum): 503.0 mg | DD0113 tumour weight, individual mouse (EDO60: EDO-S101 60 mg/kg q7dx3, day 103 from inoculum, 60 mg/kg): 70.5 mg and 747.9 mg and 89.6 mg and 231.0 mg and 670.9 mg and 37.5 mg | DD0113 tumour weight, Mean (EDO60: EDO-S101 60 mg/kg q7dx3, day 111 from inoculum): 502.0 mg | DD0113 tumour weight, individual mouse (EDO60: EDO-S101 60 mg/kg q7dx3, day 111 from inoculum, 60 mg/kg): 90.0 mg and 45.6 mg and 813.1 mg and 62.2 mg and 245.9 mg and 686.9 mg and 33.9 mg | DD0113 tumour weight, Mean (EDO60: EDO-S101 60 mg/kg q7dx3, day 114 from inoculum): 624.6 mg | DD0113 tumour weight, individual mouse (EDO60: EDO-S101 60 mg/kg q7dx3, day 114 from inoculum, 60 mg/kg): 131.7 mg and 81.4 mg and 999.4 mg and 119.1 mg and 284.3 mg and 935.9 mg and 61.0 mg | DD0113 tumour weight, Mean (EDO60: EDO-S101 60 mg/kg q7dx3, day 118 from inoculum): 747.2 mg | DD0113 tumour weight, individual mouse (EDO60: EDO-S101 60 mg/kg q7dx3, day 118 from inoculum, 60 mg/kg): 157.8 mg and 79.8 mg and 1342.5 mg and 134.3 mg and 364.6 mg and 1024.5 mg and 64.1 mg | DD0113 tumour weight, Mean (EDO80: EDO-S101 80 mg/kg single dose, day 23 from inoculum): 198.0 mg | DD0113 tumour weight, individual mouse (EDO80: EDO-S101 80 mg/kg single dose, day 23 from inoculum, 80 mg/kg): 361.8 mg and 272.9 mg and 241.0 mg and 225.2 mg and 191.6 mg | DD0113 tumour weight, Mean (EDO80: EDO-S101 80 mg/kg single dose, day 26 from inoculum): 253.1 mg | DD0113 tumour weight, individual mouse (EDO80: EDO-S101 80 mg/kg single dose, day 26 from inoculum, 80 mg/kg): 410.2 mg and 433.7 mg and 275.2 mg and 338.5 mg and 196.8 mg | DD0113 tumour weight, Mean (EDO80: EDO-S101 80 mg/kg single dose, day 29 from inoculum): 251.2 mg | DD0113 tumour weight, individual mouse (EDO80: EDO-S101 80 mg/kg single dose, day 29 from inoculum, 80 mg/kg): 399.5 mg and 447.9 mg and 310.3 mg and 335.3 mg and 179.1 mg | DD0113 tumour weight, Mean (EDO80: EDO-S101 80 mg/kg single dose, day 33 from inoculum): 251.0 mg | DD0113 tumour weight, individual mouse (EDO80: EDO-S101 80 mg/kg single dose, day 33 from inoculum, 80 mg/kg): 456.2 mg and 408.9 mg and 293.6 mg and 271.4 mg and 220.9 mg | DD0113 tumour weight, Mean (EDO80: EDO-S101 80 mg/kg single dose, day 36 from inoculum): 256.4 mg | DD0113 tumour weight, individual mouse (EDO80: EDO-S101 80 mg/kg single dose, day 36 from inoculum, 80 mg/kg): 466.8 mg and 431.6 mg and 284.2 mg and 280.3 mg and 194.9 mg | DD0113 tumour weight, Mean (EDO80: EDO-S101 80 mg/kg single dose, day 40 from inoculum): 283.7 mg | DD0113 tumour weight, individual mouse (EDO80: EDO-S101 80 mg/kg single dose, day 40 from inoculum, 80 mg/kg): 569.1 mg and 476.7 mg and 364.0 mg and 279.7 mg and 216.2 mg | DD0113 tumour weight, Mean (EDO80: EDO-S101 80 mg/kg single dose, day 43 from inoculum): 284.8 mg | DD0113 tumour weight, individual mouse (EDO80: EDO-S101 80 mg/kg single dose, day 43 from inoculum, 80 mg/kg): 500.6 mg and 547.3 mg and 355.5 mg and 255.8 mg and 227.9 mg | DD0113 tumour weight, Mean (EDO80: EDO-S101 80 mg/kg single dose, day 47 from inoculum): 326.3 mg | DD0113 tumour weight, individual mouse (EDO80: EDO-S101 80 mg/kg single dose, day 47 from inoculum, 80 mg/kg): 626.2 mg and 643.5 mg and 338.2 mg and 321.9 mg and 275.0 mg | DD0113 tumour weight, Mean (EDO80: EDO-S101 80 mg/kg single dose, day 50 from inoculum): 384.4 mg | DD0113 tumour weight, individual mouse (EDO80: EDO-S101 80 mg/kg single dose, day 50 from inoculum, 80 mg/kg): 686.0 mg and 716.7 mg and 447.7 mg and 447.8 mg and 297.1 mg | DD0113 tumour weight, Mean (EDO80: EDO-S101 80 mg/kg single dose, day 54 from inoculum): 418.9 mg | DD0113 tumour weight, Mean (EDO80: EDO-S101 80 mg/kg single dose, day 58 from inoculum): 511.4 mg | DD0113 tumour weight, Mean (EDO80: EDO-S101 80 mg/kg single dose, day 62 from inoculum): 549.2 mg | DD0113 tumour weight, Mean (EDO80: EDO-S101 80 mg/kg single dose, day 65 from inoculum): 540.3 mg | DD0113 tumour weight, Mean (EDO80: EDO-S101 80 mg/kg single dose, day 69 from inoculum): 531.6 mg | DD0113 tumour weight, Mean (EDO80: EDO-S101 80 mg/kg single dose, day 72 from inoculum): 581.5 mg | DD0113 tumour weight, Mean (EDO80: EDO-S101 80 mg/kg single dose, day 75 from inoculum): 560.9 mg | DD0113 tumour weight, Mean (EDO80: EDO-S101 80 mg/kg single dose, day 79 from inoculum): 564.1 mg | DD0113 tumour weight, Mean (EDO80: EDO-S101 80 mg/kg single dose, day 83 from inoculum): 475.0 mg | DD0113 tumour weight, Mean (EDO80: EDO-S101 80 mg/kg single dose, day 87 from inoculum): 594.1 mg | DD0113 tumour weight, Mean (EDO80: EDO-S101 80 mg/kg single dose, day 90 from inoculum): 638.8 mg | DD0113 tumour weight, Mean (EDO80: EDO-S101 80 mg/kg single dose, day 94 from inoculum): 826.0 mg | DD0113 tumour weight, Mean (EDO80: EDO-S101 80 mg/kg single dose, day 98 from inoculum): 927.2 mg | DD0113 tumour weight, Mean (EDO80: EDO-S101 80 mg/kg single dose, day 100 from inoculum): 1209.8 mg | DD0113 tumour weight, Mean (EDO80: EDO-S101 80 mg/kg single dose, day 103 from inoculum): 1301.2 mg
